# Results published in a melting point compilation (Tetko et al.; mined from patent text by program, amines drawn as free bases though some values may be those of a salt).
row,Structure (SMILES),melting point
1,CC(C)(C)N(Cc1ccccc1)CC(O)c1ccc(OCc2ccccc2)c2[nH]c(CO)cc12 (stereo not given),136 °C
2,CC(C)(C)OC(=O)Nc1sc(-c2cncc(F)c2)nc1I,148 to 149 °C
3,COc1cc(C=O)ccc1OCc1nc(N2CCCCC2)sc1C,80 to 81 °C
4,CNC(=NC#N)NCc1cccnc1,183 to 184 °C
5,CCOC(=O)CCc1ccc(CBr)cc1,132 °C
6,CCCCNC(=O)Oc1ccc(Oc2ccc(C)cc2)cc1,64 to 66 °C
7,Cc1cccc2c1N(CC(=O)c1ccccc1O)C(=O)C(NC(=O)Nc1cccc(-c3nnn[nH]3)c1)N=C2c1ccccc1F (stereo not given),221 to 225 °C
8,Cc1cccc(-c2[nH]c(C(C)C)nc2-c2cccc(-c3ccc(C)[nH]3)c2)n1,128 to 130 °C
9,COCC(=O)N(c1c(C)ccc(CC(=O)Nc2cc(Cl)cc(Cl)c2)c1C)C(C)C(=O)OC (stereo not given),126 to 128 °C
10,c1ccc(-c2nc3ncccc3o2)cc1,125 to 127 °C
11,COc1cccc(-c2nc(Cl)nc(Cl)n2)c1,114 °C
12,CC1(C)C(Cl)C(=O)C1CC(Cl)(Cl)Cl (stereo not given),56 to 57 °C
13,CC(C(=O)c1ccc(O)cc1)N1CCC(O)(c2ccccc2)CC1 (stereo not given),95 to 97 °C
14,CCCC(c1ccc(C(=O)O)cc1OCc1ccc(Br)cc1)n1ccnc1 (stereo not given),155 to 158 °C
15,C=CCn1c(-c2ccccc2[N+](=O)[O-])nc2ccccc21,81.5 to 83 °C
16,NC(=NO)c1ncn2c1[C@@H]1CCN1C(=O)c1c-2ccc(F)c1Cl,236 to 238 °C
17,OCCC1c2ccccc2-c2ccccc21,97 °C
18,CC(C)(C)OC(=O)N[C@H]1C=C[C@@H](C(=O)O)C1,153 to 155 °C
19,CC1(C)CCC(C)(C)c2cc(-c3cc4ccc(C(=O)O)cc4o3)ccc21,280 °C
20,CCCCCCCCCCC1CN(C)C(=O)N(O)C1 (stereo not given),63 to 64.5 °C
21,COc1ccc(S(=O)(=O)C2(C(=O)O)CCN(Cc3ccc(F)cc3)CC2)cc1,154 °C
22,S=C1CN=C(c2ccccc2Cl)c2cc(CCc3ccc(Cl)cc3)sc2N1,201 to 203 °C
23,CC(C)Oc1ccc(C[C@H](NC(=O)[C@@H]2CCCCN2S(=O)(=O)c2cccc(C(F)(F)F)c2)C(=O)NC2CCOCC2)cc1,78.6 °C
24,CCc1cc(C)cc(CC)c1C1C(=O)CC2(CCOCC2)CC1=O,139 to 141 °C
25,O=C(O)c1ccc(C(=O)c2ccc(Br)cc2)cc1,270 to 271 °C

# Further lines, results first:
row,melting point,Structure (SMILES)
1,115 to 117 °C,Cc1nn(C)c2c1N=CN1CC(C)N=C21 (stereo not given)
2,103 °C,Cc1cc(CN(Cc2cc(C(F)(F)F)cc(C(F)(F)F)c2)c2nnn(C)n2)c(N(CC2CC2)CC2CC2)nc1C
3,208 to 209 °C,CC(C)(C)OC(=O)Nc1cc(Sc2ccc3c(C(=O)O)cccc3c2)ncn1
4,170 to 171 °C,Cc1c(N2CCN(Cc3ccccc3)C(C)(C)C2)c(F)cc2c(=O)c(C(=O)O)cn(C3CC3)c12
5,> 220 °C,CSc1nn2c(O)cc(CN3CCN(C)CC3)nc2c1S(=O)(=O)c1ccccc1
6,144 to 146 °C,COC(=O)c1cc(=NS(=O)(=O)c2ccccc2)c2ccccc2o1
7,278 to 280 °C,Cc1ccc(-c2nc(C(=O)Nc3nnn[nH]3)c(C)s2)s1
8,149 to 150 °C,CCN(CC)c1ccc(S(=O)(=O)N2CC(O)CC2=S)cc1 (stereo not given)
9,155 to 157 °C,CCOC(=O)c1cc(=O)c(O)c(-c2ccccc2)o1
10,197 to 198 °C,COc1cc(-n2c(C)c(CC(=O)O)c3cc(C)ccc32)nc(OC)n1
11,125 to 126 °C,Cc1nc(N2CCN(Cc3ccccc3)C2=N)sc1C(=O)NCc1ccccc1
12,162 to 163 °C,O=C(c1ccccc1)N1CC(=O)N2CCc3ccccc3C2C1 (stereo not given)
13,198 to 199 °C,COc1cc(OC)cc(C(=O)N2CCc3cc(O)c(OC)cc3C2=O)c1
14,210 to 215 °C,COc1nc(Cl)ccc1C(=O)O
15,132 °C,CC(C)(C)OC(=O)N1C(=O)[C@H](O)[C@@H]1c1ccccc1
